In patent publication US11447522B2, “Potent soft anti-inflammatory corticosteroid compounds and uses thereof” (Bodor Laboratories, Inc., priority 2017, dated 2022):
Read-outs that look alike come from different tables or passages of the source.

Tests used:
receptor = details: scale where dexamethasone is 100; cited from earlier work
[1] = system: TNF α-production of LPS-stimulated blood cells; test: TNF-α production of lipopolysaccharide-stimulated human blood; type: cell-based
Procedure: (§1) The in vitro anti-inflammatory effect of ED and its analogs was assessed using LPS-induced TNF α-release under various conditions (diluted or undiluted whole human blood, preincubation with sera) to determine the intrinsic anti-inflammatory activity and systemic biological stability of the various compounds.
(§2) Commercially available human cytokine ELISA sets were used. TNF-α and GM-CSF sets were purchased from BD Pharmingen, San Diego, Calif., USA) and the IL-1β set was obtained from R&D Systems (Minneapolis, Minn., USA). ELISA was performed according to the manufacturer's protocol. Cell-free supernatants were tested in duplicate. Detection limits were 7.8 pg/ml for TNF-α, 4.7 pg/ml for GM-CSF, and 3.9 pg/ml for IL-1β. Results were expressed as the mean percentage of inhibition. IC50 values for test compounds were calculated by linear regression.
Peripheral blood from healthy donors was collected aseptically into sterile heparinized (Vacutainer™) tubes. Whole blood samples from each individual were parallel used both undiluted and after 5-fold dilution with RPMI-1640 medium in every experiment. Blood samples were distributed into 24-well plates and incubated with serial concentrations of the test compounds and 1 μg/ml lipopolysaccharide for 24 h at 37° C. in a CO2 thermostat. Controls were treated with lipopolysaccharide and the vehicle (PBS or 0.01% dimethyl sulfoxide in PBS). After incubation, cell-free supernatants were separated by centrifugation (1000 g for 10 minutes) and stored at −20° C. until determination of the amount of TNF-α. Test compounds were examined in blood samples from five different individuals. Two parallel cultures per treatments were run.

[2] = system: TNF-α production of LPS-stimulated whole blood cells; test: Stability: inhibition of TNF-α production with or without preincubation of the compounds in human plasma/serum; type: cell-based
Procedure: as §1, §2
Mononuclear cells from peripheral blood of healthy donors were isolated on Ficoll-gradient. One million cells in 0.9 ml of RPMI 1640 medium were distributed into 24-well plates and serial concentrations of the test compounds, made in fresh human serum either instantly or 18 h previously, were added (0.05 ml) together with the lipopolysaccharide (0.05 ml; 1 μg/ml final concentration). Preincubation of the compounds with serum was carried out at 37° C. Processing of the cultures was done as described above.

[3] = system: mitogen-induced proliferation of PBMC; test: Proliferation of lectin-stimulated peripheral mononuclear cells; type: cell-based, human; details: read-out: Prolif.**: Inhibition of mitogen-induced proliferation of PBMC
Procedure: Mononuclear cells from heparinized peripheral blood of healthy donors were isolated on suitable gradient (Optiprep solution, 1.077 g/ml). Serial dilutions of the test compounds (ranging from 2×10^−6 to 2×10^−8 M) were made in 100 μl of medium per well of sterile round-bottomed 96-well microtiter plate. Control wells contained culture medium only. 100 μl of cell suspension (10^6 cells/ml), containing concanavalin A (2 μg/ml) was added to each well. […] All cultures were done in triplicate. Microtiter plates were incubated for 72 h at 37° C., in 5% CO2 containing humidified atmosphere. For the last 18 h of incubation, [^3H]thymidine was added to the cells cultures, at 0.1 μCi/well final concentration. At the end of the incubation, cells were harvested to glass microfiber filter (Whatman G/F) and associated radioactivity was determined by liquid scintillation.

[4] = system: IL-1β from the human monocyte cell line THP-1; test: IL-1β production of stimulated THP.1 cells; type: cell-based
Procedure: as §2
THP.1 cells (human monocytic cell line: American Type Culture Collection. Rockville, Md., USA) were maintained in RPMI-1640 medium, supplemented with 10% FCS, 5×10^−5 M 2-merkapto-ethanol, 2 mM glutamine and antibiotics, and were split in every 3rd days. To examine the effect of test compounds 2×10^6 cells/well (24 well plates in 1 ml/well volume) were stimulated with 1 μg/ml LPS and 25 μg/ml silica for IL-1β production as described previously (Németh et al. 1995). The test compounds were dissolved in RPMI-1640 medium or the medium containing 0.01% DMSO. Two parallel cell cultures per treatment groups were run in three independent experiments. IL-1β levels in cell-free supernatants were determined by ELISA.

[5] = system: ovalbumin sensitized and challenged Brown Norway rats; test: Airway changes of ovalbumin sensitized and challenged Brown Norway rats, intratracheal administration; type: in vivo; details: for AHR (airways hyperreactivity) ED50: relative response to maximal acetylcholine dose
TNF-α production = details: cited from earlier work
[6] = Stability in the presence of human plasma (HPLC/MS/MS); type: in vitro ADME; details: 37° C.
Procedure: Etiprednol dicloacetate (BNP-166) was added to freshly prepared human plasma of healthy donors at a concentration of 5 ng/ml, and were incubated at 37° C. for different intervals. After incubation the amount of the original compound (ethyl-17α-dichloroacetoxy-11β-hydroxyandostra-1,4-diene-3-one-17β-carboxylate), and one of its main metabolite, M-OH (17α,11β-dihydroxyandostra-1,4-diene-3-one-17β-carboxylate) were determined using an HPLC/MS/MS method. In brief: Fluocinolone acetonide served as internal standard (20 ng/ml), samples were extracted with a liquid-liquid extraction on Extrelut® columns, and were separated on a Purospher STAR 30×2 mm (3 μm) reversed phase column at a flow rate of 0.3 ml/min, using a linear gradient with a mobile phase system containing acetonitrile, water and acetic acid. Determination were performed on a triple quadrupole mass spectrometer (Perkin-Elmer SCIEX API 2000) supplied with an electrospray interface operated in the positive ionization mode. The multiple ion monitoring, parent→daughter ion transitions of 485.2→265.2, 375.2→265.2 and 495.2→337.2 were used for the quantification of etiprednol dicloacetate, its M-OH metabolite and for the internal standard respectively. Results are expressed as peak areas normalized to the internal control. Stability of the selected ED analogs (10, 11, 13, 17, 21, 25) were determined as described above for ED (3).

[7] = diluted blood 1:5, read-out: TNFα* a: Inhibition of TNF α-production of LPS-stimulated blood cells
[8] = undiluted blood, read-out: TNFα* b: Inhibition of TNF α-production of LPS-stimulated blood cells
[9] = non-preincubated in human plasma, read-out: Stability*** c: Inhibition of TNF-α production of LPS-stimulated whole blood cells
[10] = preincubated overnight in human plasma, read-out: Stability*** d: Inhibition of TNF-α production of LPS-stimulated whole blood cells
[11] = intratracheal, 2 hours prior challenge
[12] = intratracheal, 2 hours prior challenge, minimal statistically significantly effective dose

Compound | relative receptor binding activity (RRBA) (receptor) | IC50 [1, 7] [µM] | IC50 [1, 8] [µM] | IC50 [2, 9] [µM] | IC50 [2, 10] [µM] | IC50 [3] [µM] | Edema formation ED50 [5, 11] [µg/kg] | Eosinophilia BALF ED50 [5, 11] [µg/kg] | Eosinophilia Perivascular ED50 [5, 11] [µg/kg] | Mucus production ED50 [5, 11] [µg/kg] | Mucus production, second line (dose type not given) [5, 11] [µg/kg] | AHR (airways hyperreactivity) MSED [5, 12] | Edema formation MSED [5, 12] [µg/kg] | Eosinophilia BALF MSED [5, 12] [µg/kg] | Eosinophilia Perivascular MSED [5, 12] [µg/kg] | AHR (airways hyperreactivity) ED50 [5, 11] | other results
CCOC(=O)O[C@]1(C(=O)OCCl)CCC2C3CCC4=CC(=O)C=CC4(C)C3[C@@H](O)CC21C (stereo partly drawn) [LE, chloromethyl 17α-ethoxycarbonyloxy-11β-hydroxyandrosta-1,4-dien-3-one-17β-carboxylate] | 160 |  |  |  |  |  |  |  |  |  |  |  |  |  |  |  | 
CCOC(=O)[C@@]1(OC(=O)C(Cl)Cl)CC[C@H]2[C@@H]3CCC4=CC(=O)C=C[C@]4(C)[C@H]3[C@@H](O)C[C@@]21C [Compound 3, Ethyl 17α-dichloroacetoxy-11β-hydroxyandrosta-1,4-diene-3-one-17β-carboxylate] | ~200 | 0.027 | 0.103 | 0.073 | 2.7 | 0.01 | 2.9 | ≤0.1 | >100 | 13.8 | 0.1 | ≈1.0 μg/kg | 0.1 | 0.1 | 1.0 | ≈1.0 μg/kg | inhibition of the liberation of IL-1β [4]: significantly inhibited; Eosinophilia Peribronchial ED50 [5, 11]: 0.62 µg/kg; Eosinophilia Peribronchial MSED [5, 12]: 0.1 µg/kg; loss of activity during incubation (TNF-α production; five days): 100 fold; loss of activity during incubation (TNF-α production; two days): five-fold
C[C@@H]1C[C@H]2[C@@H]3C[C@H](F)C4=CC(=O)C=C[C@]4(C)[C@@]3(F)[C@@H](O)C[C@]2(C)[C@@]1(OC(=O)C(Cl)Cl)C(=O)SCF [Compound 25, S-Fluoromethyl 17α-dichloroacetoxy-6α,9α-difluoro-11β-hydroxy-16α-methyl-3-oxoandrosta-1,4-diene-17β-carbothioate] |  | 0.002 | 0.003 | 0.001 | 0.087 | 0.0001 | <1.0 | 16.1 | 83.8 | 7.42 | 100 | 10 µg/kg | 1.0 | 1.0 | 1.0 | 3.75 µg/kg | stability in the presence of human plasma [6]: particularly stable; overall in vivo activity compared with the parent steroid ([5]; Table 2 parameters): overall superior to FLU; BALF protein ED50 ([5]; intratracheal, 2 hours prior challenge, broncho-alveolar lavage fluid): 0.64 µg/kg; BALF protein MSED [5, 12]: 100 µg/kg
